Source: patent publication US6174914A, “Method of inhibiting cytokine release from human ocular cells” (Alcon Laboratories, Inc., priority 1999, dated 2001)
Where a name gives a salt, the structure may show the parent alone.

Columns and labels:
[1] = cited from earlier work; for activity taught in U.S. Pat. Nos. 4,871,865 and 4,923,892: Burroughs Wellcome Patents
[2] = test system: IL-6 secretion in human conjunctival epithelial cells; assay: Inhibition of histamine-stimulated IL-6 secretion from cultured human conjunctival epithelial cells (ELISA); format: cell-based; details: for potency in intact cells / inhibition of secretion compared with receptor binding: IL-6 and IL-8 secretion
Description: Methods detailing the preparation of primary epithelial cell cultures and cytokine release studies using these cells have been described. […] Briefly, cultures of human conjunctival epithelial cells were initiated from donor tissues obtained within eight hours post mortem by various eye banks. The tissues were enzymatically digested overnight. Epithelial cells were gently scraped from the tissue surface, dissociated into a single cell suspension, and cultured in keratinocyte growth medium (Clonetics®, San Diego, Calif.). Cells were used only through passage 6. Cultures were maintained in a preconfluent state to prevent differentiation.
Several compounds with histamine H1 antagonist activity were evaluated for their ability to inhibit secretion of cytokines (IL-6 and IL-8) from cultured human conjunctival epithelial cells in response to histamine stimulation. Cells were plated at 2×10^4 cells/well and cultured overnight at 5% CO2 /37° C. The following day, fresh medium containing test compound was added directly to wells and the cells were incubated for 30 minutes prior to 24-hour stimulation with histamine (30 μM). Three separate culture wells were used for each treatment group. At harvest, supernatants were collected, centrifuged at 200× g, and stored at -20° C. Samples were analyzed for IL-6 and IL-8 by ELISA (R&D Systems, Minneapolis, Minn.) as directed by the manufacturer. The sensitivities of each ELISA are as follows: IL-6 0.7 pg/ml and IL-8 3.0 pg/ml.
Data derived from the cytokine assays were calculated as mean and standard error (SEM) values which represent the variability among identically treated culture wells. The dose-dependent effect of pharmacological agents and IC50 's were determined by linear regression. Data are expressed as mean ±S.E.M. from 3-5 independent experiments.

[3] = test system: IL-8 secretion in human conjunctival epithelial cells; assay: Inhibition of histamine-stimulated IL-8 secretion from cultured human conjunctival epithelial cells (ELISA); format: cell-based; details: Epithelial cell, 24 h, read-out: increase of IL-8 secretion above basal levels
Description: Methods detailing the preparation of primary epithelial cell cultures and cytokine release studies using these cells have been described. See Gamache, et al., "Secretion of proinflammatory cytokines by human conjunctival epithelial cells," Ocul Immunol Inflamm., 5:117-128 (1997). Briefly, cultures of human conjunctival epithelial cells were initiated from donor tissues obtained within eight hours post mortem by various eye banks. The tissues were enzymatically digested overnight. Epithelial cells were gently scraped from the tissue surface, dissociated into a single cell suspension, and cultured in keratinocyte growth medium (Clonetics®, San Diego, Calif.). Cells were used only through passage 6. Cultures were maintained in a preconfluent state to prevent differentiation. Cells were identified as epithelial by positive keratin staining.
Several compounds with histamine H1 antagonist activity were evaluated for their ability to inhibit secretion of cytokines (IL-6 and IL-8) from cultured human conjunctival epithelial cells in response to histamine stimulation. Cells were plated at 2×10^4 cells/well and cultured overnight at 5% CO2 /37° C. […] Samples were analyzed for IL-6 and IL-8 by ELISA (R&D Systems, Minneapolis, Minn.) as directed by the manufacturer. […]

[4] = IL-6 and IL-8 secretion versus H1 binding

## CN(C)CCC=C1c2ccccc2COc2ccc(/C=C/C(=O)O)cc21 [11-(3-dimethylamino-propylidene)-6,11-dihydrodibenz[b,e]oxepine-2(E)-acrylic acid]
[1]
  activity taught in U.S. Pat. Nos. 4,871,865 and 4,923,892: antihistaminic and antiasthmatic activity

## CN(C)CCC=C1c2ccccc2COc2ccc(C(=O)O)cc21 [11-(3-dimethylaminopropylidene)-6,11-dihydrodibenz[b,e]oxepine-2-carboxylic acid]
[1]
  activity taught in U.S. Pat. Nos. 4,871,865 and 4,923,892: antihistaminic and antiasthmatic activity

## c1ccc(CN(CC2=NCCN2)c2ccccc2)cc1 [Antazoline, 4,5-Dihydro-N-phenyl-N-(phenylmethyl)-1H-imidazole-2-methanamine]
[2]; [4]
  less potent inhibitor of IL-6 and IL-8 secretion than predicted from histamine H1-receptor binding affinity: 20-140 fold

## CCOCCn1c(N2CCCN(C)CC2)nc2ccccc21 [Emedastine, 1H-Benzimidazole,1-(2-ethoxyethyl)-2-(hexahydro-4-methyl-1H-1,4-diazepin-1-yl),(E)-2-butenedioate (1:2)]
[2]
  potency in intact cells / inhibition of secretion compared with receptor binding: consistent with its activity determined in receptor binding assays

## C[C@@H]1CN([C@H]2CC[C@](C#N)(c3ccc(F)cc3)CC2)CC[C@]1(C(=O)O)c1ccccc1 [Levocabastine, (-)-trans-1-[cis-4-Cyano-4-(p-fluorophenyl)cyclohexyl]-3-methyl-4-phenylisonipecotic acid monohydrochloride]
[2]
  potency in intact cells / inhibition of secretion compared with receptor binding: at a level consistent with its H1 -receptor binding affinity

## CN(C)CC/C=C1/c2ccccc2COc2ccc(CC(=O)O)cc21 [Olopatadine, Z-11-(3-Dimethylaminopropylidene)-6,11-dihydrodibenz[b,e]oxepin-2-acetic acid]
[2]; [4]
  more potent inhibitor of cytokine secretion than predicted from binding data: approximately 10 fold
[1]; Kyowa patent, Wistar male rats
  activity taught in U.S. Pat. No. 5,116,863: anti-allergic and anti-inflammatory activity

## CN(C)CCC(c1ccccc1)c1ccccn1 (stereo not shown) [Pheniramine, N,N-Dimethyl-γ-phenyl-2-pyridine-propanamine]
[2]; [4]
  less potent inhibitor of IL-6 and IL-8 secretion than predicted from histamine H1-receptor binding affinity: 20-140 fold

## NCCc1c[nH]cn1 [histamine]
[2]; Homo sapiens, Epithelial cell, 24 h, read-out: increase of IL-6 secretion above basal levels
  fold induction at 30 µM: 1.59 ± 0.19
[3]
  fold induction at 30 µM: 1.8 ± 0.28
